# Measured values taken from article PMC10426190 (Breast Cancer Research : BCR, 2023).
# pIC50: −log10 of the molar value. Where two headings read alike, the source gives them in different places.
# Legend:
# [1] = parameters: method as in PMID 30018387; details: cited from earlier work
# [2] = system: ER + breast cancer cell lines; experiment: Proliferation assay across ER-positive cell panel; assay type: cell-based, human; details: CAMA-1 and HCC1500, 7 days
# Description: (§1) Trypsinized cells were dispensed into 384-well plates in culture media and after overnight incubation cells were treated with compounds for 7 days. Cell viability was assessed using CellTiter-Glo (Promega) according to the manufacturer’s protocol and relative luminescence units (RLU) were measured using an Envision Multilabel Reader (Perkin Elmer). […] IC50 and Imax were analyzed with IDBS XLfit.
# MCF7 cells were seeded in a 384-well plate and linear-dilution compounds were administrated in duplicate for each treatment. After incubation for 24 h, Cells in the assay pate were treated as described in methods. ERα levels were quantified by immunofluorescence assay. […] Data are given as mean ± SEM. b The maximal ERα degradation across an ER-positive cell panel was evaluated in an In-cell Western assay. Cells were dispended into 96-well plates and incubated for 24 h with compounds (100 nM) treatment. […] Cells were seeded in 384-well plates and treated with linear-dilution compounds for 7 days of incubation. Cell viability was assessed using CellTiter-Glo. Cell growth inhibition is presented as a percentage of CellTiterGlo activity relative to the vehicle control. […] WT (e) and ER. Y537S cells (f). […] Then cells in each well were collected and the targeting proteins in lysate supernatant were detected by WB
# [3] = biological target: T1, ERα (Homo sapiens, UniProt P03372); experiment: Maximal ERα degradation across ER-positive cell panel, In-cell Western, 100 nM; assay type: cell-based; details: 24 h, EFM-19, CAMA-1, HCC1500, T47D, BT-474
# T1 sequence (P03372 1-595): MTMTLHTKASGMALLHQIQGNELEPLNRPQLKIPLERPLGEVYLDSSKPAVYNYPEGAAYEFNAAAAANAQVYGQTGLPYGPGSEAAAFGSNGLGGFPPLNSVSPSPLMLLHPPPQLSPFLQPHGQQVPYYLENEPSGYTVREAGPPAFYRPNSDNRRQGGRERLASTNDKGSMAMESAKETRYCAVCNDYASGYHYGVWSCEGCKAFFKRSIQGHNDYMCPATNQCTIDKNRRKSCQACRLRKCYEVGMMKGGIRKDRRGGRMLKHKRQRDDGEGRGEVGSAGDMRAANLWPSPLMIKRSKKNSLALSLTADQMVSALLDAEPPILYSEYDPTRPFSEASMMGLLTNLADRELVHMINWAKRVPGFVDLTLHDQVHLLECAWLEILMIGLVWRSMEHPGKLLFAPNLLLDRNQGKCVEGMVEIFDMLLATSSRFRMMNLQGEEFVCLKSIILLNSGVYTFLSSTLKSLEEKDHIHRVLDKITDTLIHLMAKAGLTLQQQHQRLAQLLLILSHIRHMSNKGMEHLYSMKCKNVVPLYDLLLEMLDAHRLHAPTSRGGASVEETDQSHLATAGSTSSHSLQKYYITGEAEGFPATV
# Description: (§2) MCF7 cells were seeded in a 384-well plate and linear-dilution compounds were administrated in duplicate for each treatment. After incubation for 24 h, Cells in the assay pate were treated as described in methods. ERα levels were quantified by immunofluorescence assay. […] Cells were dispended into 96-well plates and incubated for 24 h with compounds (100 nM) treatment. […] Cells were seeded in 384-well plates and treated with linear-dilution compounds for 7 days of incubation. Cell viability was assessed using CellTiter-Glo. Cell growth inhibition is presented as a percentage of CellTiterGlo activity relative to the vehicle control. […] Then cells in each well were collected and the targeting proteins in lysate supernatant were detected by WB
# [4] = system: ER+ breast cancer, WT or mutant ESR1; parameters: method as in EMERALD (NCT03778931), ASCO, 2022; details: ASCO, 2022, cited from earlier work
# [5] = system: intracranial tumor; details: cited from earlier work
# [6] = parameters: method as in PMID 26149830; details: mice, 30 mg/kg, approximately 12 h ref 38; cited from earlier work
# [7] = Brain distribution study in mice; details: oral 10 mg/kg once a day (fulvestrant 250 mg/kg sc once per week), 24 h post last dose
# Description: The blood and brain tissues were collected at 24 h post the last dose. […] All blood was collected in K2-EDTA tubes and plasma was obtained by centrifuging the blood at 3200 rpm for 10 min at 4 °C and the brain was rinsed with water and blotted to remove superficial meninges. Plasma and brain samples were stored at − 80 °C until LC–MS/MS analysis which was performed on an Acquity UPLC system (Waters, USA) coupled to an AB SCIEX Triple Quad 6500 + System.
# Brain conc./plasma conc. was presented as a B/P ratio
# [8] = biological target: T1, ERα; experiment: ERα degradation assay, In-Cell Western, MCF-7 WT; assay type: cell-based; parameters: MCF-7 wild type and Y537S mutant cells were seeded at a density of 5000 cells per well; host or cells: MCF-7; details: 24 h
# Description: MCF-7 wild type and Y537S mutant cells were seeded at a density of 5000 cells per well into flat clear bottom tissue cultured-treated 384-well plates (Greiner) in culture media and after overnight incubation cells were treated with compounds for 24 h. Then plates were fixed with 4% formaldehyde, permeabilized with ice-cold methanol, and blocked with Odyssey Blocking Buffer (LI-COR). The fixed cells were incubated with rabbit anti- ERα antibody (CST#8644S) and mouse anti-GAPDH antibody (Abcam #ab8245), washed and stained with IRDye 800 Goat anti-Rabbit IgG (Licor#926-32211) and IRDye 680 Goat anti-Mouse IgG (Licor#926-68070). ERα levels were quantitated using Sapphire RGBNIR (Azure), the acumen eX3 imaging system. […] IC50 and Emax were analyzed with IDBS XLfit.
# as §2
# Cells were seeded at a density of 5,000 cells per well into 384-well plates and treated with linear-titration compounds in duplicate for 24 hours. ERα levels were quantified by immunofluorescence assay as described in the method. The detection signals were captured by Odyssey.
# [9] = system: MCF-7 WT cells; experiment: Viability assay (CellTiter-Glo, 7 days), MCF-7 WT; assay type: cell-based, human
# Description: as §1
# (§3) Statistical and graphical presentations were performed using IDBS XLfit and GraphPad Prism 9. For cell proliferation assays, the IC50 was calculated by fitting a dose–response curve using a nonlinear regression model with a log(inhibitor) vs response curve fit. […] P-values < 0.05 were considered statistically significant.
# [10] = system: MCF-7 subcutaneous tumors; experiment: MCF-7 subcutaneous xenograft, combination with Palbociclib; assay type: in vivo, mouse; details: MCF-7 sc, Palbociclib 40 mg/kg monotherapy
# Description: Female Balb/c nude mice were used for MCF-7 and T47D tumor subcutaneous xenograft studies. At least one day before tumor cell implantation, estrogen pellets (0.18 mg, 17β-Estradiol, 60-day release, Innovative Research of America, Sarasota, FL, USA) were implanted subcutaneously. Each mouse was subcutaneously injected with 1 × 10^7 MCF-7 (ECACC) or T47D cells in the right flank, and tumor growth was monitored. The long diameter (a) and the short diameter (b) of the tumor were measured using a caliper, and the tumor volume was calculated using the following formula: V = 0.5 × a × b^2. […] Tumor volumes were evaluated twice per week. Treatment tolerability was assessed by body weight measurements and frequent observation for clinical signs of treatment-related adverse effects.
# as §3
# Cell viability was measured using Cell TiterGlo assay. […] The result of one representative assay from three similar independent experiments is shown.
# [11] = system: breast cancer; parameters: method as in PMID 28149048; details: cited from earlier work
# [12] = system: uterine tissue; experiment: Assessment of uterotropic activity in juvenile rats; assay type: in vivo, rat; details: juvenile SD rats, oral QD x 3 days; tamoxifen 60 mg/kg, SCR-6852 10 mg/kg; vs vehicle
# Description: Twenty-four hours after the final dose, all animals were euthanized. Body weights and wet uterine weights were recorded for each animal. Fresh uterine tissue from each rat was fixed in 4% paraformaldehyde, dehydrated by HistoCore PEARL (Leica), and embedded by HistoCore Arcadia H + HistoCore Arcadia C (Leica). Sections were cut at 4 μm and stained with 0.1% toluidine blue O. The thickness of endometrial epithelium was measured using Leica Aperio CS2 with ImageScope × 64 program (Leica). The mean of five measurements per specimen was calculated.
# MCF7 with hormone-deprived pre-treatment were administrated ER ligands or not present with 1 nM E2 stimulation for 24 h incubation in a 12-well plate. Total mRNA was isolated from treated cells and sequenced on an Illumina HiSeq X Ten platform. FPKM of each gene was calculated using Cufflinks and Differential expression genes analysis by using the DESeq (2012) R package. Four separate clusters were obtained. […] T47D EFM-19 and HCC1500 cells were grown in RPMI media supplemented with 10% charcoal-stripped FBS for 14 days and then treated with ER antagonist (1 μM) or DMSO in the presence E2 (1nM) stimulation for 24 h before RNA isolation and gene expression analysis as described in methods. […] Endometrial height was assessed from the basement membrane to the luminal border (scale bar in green lines: 200 μm), Arrows indicate the uterine epithelium (e).
smiles,measurement,setting,value
Nc1cc(C(F)(F)F)c(-c2cc(N3CCOCC3)nc(N3CCOCC3)n2)cn1 [Buparlisib],B/P ratio,[1],> 1.5
C[C@@H]1Cc2c([nH]c3ccccc23)[C@@H](c2c(F)cc(/C=C/C(=O)O)cc2F)N1CC(C)(C)F [AZD9496],maximal anti-proliferation rate,[2],lower maximal anti-proliferation rate
same,maximal ERα degradation rate across ER + cell lines,[3],less potency ERα degradation rate
CCNCCc1ccc(CN(CC)c2cc(OC)ccc2[C@@H]2CCc3cc(O)ccc3C2)cc1 [Elacestrant],PFS rate at 12 months,[4]; ESR1 mutation population ref EMERALD (NCT03778931),26.76%
same,reduction of the risk of disease progression or death,[4]; all patients ref EMERALD (NCT03778931),30%
same,PFS rate at 12 months,[4]; overall population ref EMERALD (NCT03778931),22.32%
same,reduction of the risk of disease progression or death,[4]; patients with ESR1 mutation ref EMERALD (NCT03778931),45%
same,animals survived to the end of the study,[5]; day 54 ref 41,43%
same,B/P ratio,"[5]; intracranial tumor, according to reported data ref 41",about 0.6
CCN1CCN(Cc2ccc(Nc3ncc(F)c(-c4cc(F)c5nc(C)n(C(C)C)c5c4)n3)nc2)CC1 [Abemaciclib],target engagement ratio (unbound brain concentration to in vitro enzyme IC50),[6],3.3–14.3
C[C@@H]1Cc2c(ccc3[nH]ncc23)[C@@H](c2ccc(NC3CN(CCCF)C3)cn2)N1CC(F)(F)F [AZD-9833],B/P ratio,[7],less than onefold
CC1Cc2cc(B(O)O)ccc2C(c2c(F)cc(NC3CN(CCCF)C3)cc2F)N1CC1(F)CC1 (centres unmarked) [SCR-6515],DC50,[8],0.08 nM
same,ERα degradation assay Dmax [% Ful.],[8],97.83 % Ful.
same,ERα degradation assay Dmax [% Veh.],[8],66.81 % Veh.
same,pIC50,[9],9.54
same,Viability assay Emax [% Ful.],[9],103.00 % Ful.
same,Viability assay Emax [% Veh.],[9],64.15 % Veh.
CC(=O)c1c(C)c2cnc(Nc3ccc(N4CCNCC4)cn3)nc2n(C2CCCC2)c1=O [Palbociclib],TGI,[10],66.34%
CC/C(=C(\c1ccccc1)c1ccc(OCCN(C)C)cc1)c1ccccc1 [Tamoxifen],reduction of annual mortality rate,[11],31%
same,reduction of breast cancer recurrence,[11],50%
same,endometrial epithelial thickness,[12],significantly increased
same,relative uterine wet weight,[12],significant increase
C[C@@H]1Cc2c([nH]c3ccccc23)[C@@H](c2c(F)cc(NC3CN(CCCF)C3)cc2F)N1CC(F)(F)CO [GDC-9545],B/P ratio,[7],less than onefold
